Assay results reported in US6515124B2, “Dehydroamino acids” (Hoffman-La Roche Inc., priority 2000, dated 2003).
pIC50: −log10 of the molar value.

How the values were obtained:
[1] = target: T1, LFA-1 binding to immobilized ICAM-1 (Homo sapiens, UniProt P05107+P20701); assay: LFA-1/ICAM-1 Protein-Protein Assay (solid-phase ELISA); conditions: 5dICAM-Ig coated plates, membrane-bound LFA-1 from transfected 293 cells
T1 construct: made in house; host or cells: transfected 293 cells (LFA-1)
Method: LFA-1/ICAM-1 Protein-Protein Assay
LFA-1/ICAM-1 antagonist activity, defined as the ability to block LFA-1 binding to immobilized ICAM-1, was quantitated using a solid-phase ELISA. Typically, fusion protein consisting of the entire extracellular domain of human ICAM-1 and the Fc domain of human IgG (5dICAM-Ig) was coated onto 96-well microtiter plates (0.15 μg in 100 μL PBS) overnight at 4° C. The plates were then blocked with 150 μL of 1% BSA/1 mM MnCl2/0.14 M NaCl/20 mM HEPES, pH 7.2 for 1 h at 37° C. and washed 3 times (150 μL each) with Wash Buffer (50 mM Tris, pH 7.4/100 mM NaCl/1 mM MnCl2/0.05% Tween 20). Stock solutions (100 μM in 100% DMSO) of test compounds were diluted 50 fold with 150 μL of Binding Buffer (0.05% BSA/0.05% Tween 20/1 mM MnCl2/0.14 M NaCl/20 mM HEPES, pH 7.2) plus 10% DMSO. A series of 1:4 dilutions were performed to achieve a concentration range of 0.12 nM-2 μM. Fifty μL per well of each dilution was added to the ICAM-1 coated plates, followed by 50 μL per well of membrane-bound LFA-1 (280 ng/mL in Binding Buffer) derived from transfected 293 cells. The plates were shaken vigorously for 1 min (room temperature) and gently for 2 h (37° C.). After incubation, the plates were washed 3 times (150 μL each) with Wash Buffer. Mouse anti-human integrin β2 monoclonal antibody was added (100 μL/well, 1 μg/ml in Binding Buffer) and allowed to incubate for 1 h (37° C.) with gentle agitation. The plates were then washed 3 times with Wash Buffer. HRP-conjugated goat anti-mouse IgG (100 μL/well, 1:1500 dilution in Binding Buffer) was added to each well, followed by incubation for 1 h (37° C.) and concluded by three washes (150 μL each) with Wash Buffer. TMB solution (100 μL per well) was added for color development (10 min). The reaction was stopped by the addition of 100 μL of 1M H3PO4 to each well. The plates were then read at 450 nm.

[2] = system: T lymphocyte proliferation (murine spleen cells); assay: Mixed Lymphocyte Reaction (MLR), one-way; format: cell-based, mice; conditions: C57B1/6 spleen cells with irradiated BALB/c spleen cells, tritiated thymidine incorporation, 3 days
Description: Mixed Lymphocyte Reaction (MLR)
Admixture of murine spleen cells from two different inbred strains of mice induces proliferation of T lymphocytes. The magnitude of T cell proliferation depends on the extent of disparity in the major histocompatibility antigens between the two strains. Splenic T lymphocytes from both strains proliferate due to alloantigen recognition, a process for which the interaction of ICAM-1 on antigen-presenting cells with LFA-1 on lymphocytes is necessary. The ability of antagonists to inhibit T lymphocyte proliferation following recognition of alloantigens was assessed in a one-way MLR, where cells from one strain were irradiated to permit measurement of the proliferative response of cells from the other strain. Spleen cells were washed three times in tissue culture medium (TCM; see below). Fifty microliters of a spleen cell suspension (prepared at 10×10^6 cells/ml in TCM) obtained from C57B1/6 mice were added to an equal number of lethally-irradiated (2000 rads) spleen cells obtained from BALB/c mice in a 96-well U-bottom tissue culture plate (Costar, 3799). One hundred microliters of serial dilutions of antagonists or TCM were added to the spleen cell mixture. The total volume in each well was 200 μL. TCM was RPMI1640 containing 10% heat-inactivated fetal bovine serum, […] L-glutamine, 100 Units/ml each of penicillin and streptomycin and 5×10^−5 M 2-mercaptoethanol. Dilutions of antagonists were prepared in TCM. Plates were incubated in 5% CO2 for 3 days. On the third day, 0.5 μCi of tritiated thymidine (10 μCi/mL) was added to all the wells. Cells were harvested 6 h later on a 96-well plate harvester and the amount of tritiated thymidine incorporated was assessed in a liquid scintillation counter.

[3] = Mus musculus, T-lymphocyte, light or radiation study, 72 h

T1 sequence (P20701 26-1170): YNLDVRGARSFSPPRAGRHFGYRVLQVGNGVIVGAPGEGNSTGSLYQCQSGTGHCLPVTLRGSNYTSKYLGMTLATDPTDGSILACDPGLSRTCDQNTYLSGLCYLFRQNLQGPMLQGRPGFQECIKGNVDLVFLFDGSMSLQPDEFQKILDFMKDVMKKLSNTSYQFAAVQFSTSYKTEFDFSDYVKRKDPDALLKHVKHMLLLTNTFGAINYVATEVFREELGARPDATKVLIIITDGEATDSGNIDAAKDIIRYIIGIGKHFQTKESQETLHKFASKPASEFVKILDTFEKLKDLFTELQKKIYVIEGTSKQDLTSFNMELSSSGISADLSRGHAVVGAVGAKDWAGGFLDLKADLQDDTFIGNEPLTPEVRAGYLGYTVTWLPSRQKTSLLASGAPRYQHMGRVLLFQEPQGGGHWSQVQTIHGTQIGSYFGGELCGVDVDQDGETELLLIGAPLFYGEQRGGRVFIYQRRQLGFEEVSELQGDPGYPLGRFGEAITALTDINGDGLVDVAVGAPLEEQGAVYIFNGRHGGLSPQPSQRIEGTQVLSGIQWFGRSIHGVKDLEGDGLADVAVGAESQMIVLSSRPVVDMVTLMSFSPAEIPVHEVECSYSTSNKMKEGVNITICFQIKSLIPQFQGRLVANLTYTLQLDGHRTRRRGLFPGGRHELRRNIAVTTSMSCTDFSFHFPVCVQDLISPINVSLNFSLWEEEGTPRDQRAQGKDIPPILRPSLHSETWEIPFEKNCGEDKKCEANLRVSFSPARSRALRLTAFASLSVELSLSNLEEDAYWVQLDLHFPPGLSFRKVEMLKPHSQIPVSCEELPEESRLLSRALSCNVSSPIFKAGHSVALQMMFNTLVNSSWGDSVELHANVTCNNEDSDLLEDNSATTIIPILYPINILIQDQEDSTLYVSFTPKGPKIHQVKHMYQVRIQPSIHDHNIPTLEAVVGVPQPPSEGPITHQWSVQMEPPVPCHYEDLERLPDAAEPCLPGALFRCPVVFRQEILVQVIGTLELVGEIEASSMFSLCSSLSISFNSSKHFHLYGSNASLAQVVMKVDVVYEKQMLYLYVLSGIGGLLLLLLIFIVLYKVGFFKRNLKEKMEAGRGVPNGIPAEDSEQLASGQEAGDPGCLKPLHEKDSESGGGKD
T1 sequence (P05107 23-769): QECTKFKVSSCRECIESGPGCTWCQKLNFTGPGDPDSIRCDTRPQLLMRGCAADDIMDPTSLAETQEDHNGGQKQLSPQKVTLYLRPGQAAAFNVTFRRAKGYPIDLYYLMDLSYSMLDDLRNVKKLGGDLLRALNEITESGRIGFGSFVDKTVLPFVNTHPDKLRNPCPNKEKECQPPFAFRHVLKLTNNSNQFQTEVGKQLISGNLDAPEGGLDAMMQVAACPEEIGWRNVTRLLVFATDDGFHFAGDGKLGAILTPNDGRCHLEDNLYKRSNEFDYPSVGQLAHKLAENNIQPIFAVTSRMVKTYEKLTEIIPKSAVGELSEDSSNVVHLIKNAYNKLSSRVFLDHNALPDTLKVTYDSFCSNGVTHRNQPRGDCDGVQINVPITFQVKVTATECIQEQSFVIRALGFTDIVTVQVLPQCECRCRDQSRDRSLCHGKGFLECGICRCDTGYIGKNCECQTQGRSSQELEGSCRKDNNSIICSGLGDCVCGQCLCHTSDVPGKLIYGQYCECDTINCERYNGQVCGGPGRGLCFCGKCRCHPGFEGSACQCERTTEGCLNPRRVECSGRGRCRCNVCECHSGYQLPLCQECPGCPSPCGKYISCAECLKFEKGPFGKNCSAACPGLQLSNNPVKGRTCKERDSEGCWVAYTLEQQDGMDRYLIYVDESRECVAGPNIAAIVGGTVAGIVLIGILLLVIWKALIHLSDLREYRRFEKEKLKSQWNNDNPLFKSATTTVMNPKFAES

| SMILES | pIC50 [1] | pIC50 [2, 3] | further results |
| --- | --- | --- | --- |
| O=C(O)/C(=C/c1ccc2nsnc2c1)NC(=O)c1ccc(C(=O)NCc2cccc(O)c2)cc1Cl [Example 247] | 8.70 | 5.29 | – |
| Cc1nc(C)c(/C=C(\NC(=O)c2c(C)cc(C(=O)NCc3cccc(O)c3)cc2C)C(=O)O)s1 [Example 248] | 8.40 | 4.62 | – |
| Cc1nc(C)c(/C=C(\NC(=O)c2ccc(C(=O)NCc3cccc4[nH]ccc34)cc2Br)C(=O)O)s1 [Example 249] | 8.24 | 4.80 | – |
| Cc1nc(C)c(/C=C(\NC(=O)c2c(C)cc(C(=O)N[C@H](C)c3cccc4ccccc34)cc2C)C(=O)O)s1 [Example 251] | 7.69 | 4.70 | – |
| C[C@@H](NC(=O)c1cc(Cl)c(C(=O)N/C(=C\c2cnc3ccccc3c2)C(=O)O)c(Cl)c1)c1cccc2ccccc12 [Example 252] | 8.57 | 5.60 | – |
| Cc1cc(C(=O)NCc2cc(F)cc(F)c2)cc(C)c1C(=O)N/C(=C\c1cnc2ccccc2c1)C(=O)O [Example 253] | 8.18 | 5.09 | – |
| Cc1nc(C)c(/C=C(\NC(=O)c2c(C)cc(C(=O)NCc3cc(F)cc(F)c3)cc2C)C(=O)O)s1 [Example 254] | 6.96 | 4.02 | – |
| O=C(O)/C(=C/c1cnc2ccccc2c1)NC(=O)c1ccc(C(=O)NCc2cccc3[nH]ccc23)cc1Br [Example 255] | 8.24 | 4.83 | – |
| Cc1nc(C)c(/C=C(\NC(=O)c2ccc(C(=O)NCc3cccc(O)c3)cc2Br)C(=O)O)s1 [Example 258] | 8.63 | 5.69 | pIC50 ([1]; mono sodium salt): 8.70; pIC50 ([2]; listed as 258^b): 5.56 |
| CN(C)c1ncc(/C=C(\NC(=O)c2ccc(C(=O)NCc3cccc(O)c3)cc2Br)C(=O)O)s1 [Example 260] | 9.11 | 5.52 | – |
| O=C(O)/C(=C/c1cnc(N2CCOCC2)s1)NC(=O)c1ccc(C(=O)NCc2cccc(O)c2)cc1Br [Example 261] | 7.40 | 4.59 | – |
| Cc1nnsc1/C=C(\NC(=O)c1ccc(C(=O)NCc2cccc(O)c2)cc1Br)C(=O)O [Example 263] | 8.16 | 5.55 | – |
| O=C(O)/C(=C/c1csc2ccccc12)NC(=O)c1ccc(C(=O)NCc2cccc(O)c2)cc1Br [Example 264] | 8.38 | 4.89 | – |
| O=C(O)/C(=C/c1cnc(Cl)s1)NC(=O)c1ccc(C(=O)NCc2cccc(O)c2)cc1Cl [Example 266] | 8.57 | 5.05 | – |
| O=C(O)/C(=C/c1ccc2ncsc2c1)NC(=O)c1ccc(C(=O)NCc2cccc3[nH]ccc23)cc1Br [Example 267] | 8.20 | 5.20 | – |
| O=C(O)/C(=C/c1nccs1)NC(=O)c1ccc(C(=O)NCc2cccc(O)c2)cc1Br [Example 268, (Z)-2-[[2-Bromo-4-[[(3-hydroxybenzyl)amino]carbonyl]benzoyl]amino]-3-(thiazol-2-yl)propenoic Acid] | 7.98 | 5.05 | – |
| O=C(O)/C(=C/c1ccccc1)NC(=O)c1ccc(C(=O)NCc2cccc(O)c2)cc1Br [Example 269] | 8.37 | 5.66 | – |
| O=C(O)/C(=C/c1cccc2ccccc12)NC(=O)c1ccc(C(=O)NCc2cccc(O)c2)cc1Br [Example 270] | 7.69 | 4.70 | – |

| SMILES | pIC50 [1] | pIC50 [2, 3] | further results |
| --- | --- | --- | --- |
| O=C(O)/C(=C/c1ccccc1O)NC(=O)c1ccc(C(=O)NCc2cccc(O)c2)cc1Br [Example 272] | 8.85 | 5.82 | – |
| O=C(O)/C(=C/c1ccccn1)NC(=O)c1ccc(C(=O)NCc2cccc(O)c2)cc1Br [Example 273] | 8.27 | 5.85 | – |
| O=C(O)/C(=C/c1ccc2ccccc2c1)NC(=O)c1ccc(C(=O)NCc2cccc(O)c2)cc1Br [Example 274] | 9.21 | 5.78 | – |
| O=C(O)/C(=C/c1cnc2ccccc2c1)NC(=O)c1ccc(C(=O)NCc2cccc(O)c2)cc1Br [Example 277] | 9.28 | 6.45 | – |
| O=C(O)/C(=C/c1cnc[nH]1)NC(=O)c1ccc(C(=O)NCc2cccc(O)c2)cc1Br [Example 278] | 8.70 | 5.84 | – |
| O=C(O)/C(=C/c1cccnc1)NC(=O)c1ccc(C(=O)NCc2cccc(O)c2)cc1Br [Example 279] | 8.21 | 5.89 | – |
| O=C(O)/C(=C/c1ccncc1)NC(=O)c1ccc(C(=O)NCc2cccc(O)c2)cc1Br [Example 280] | 8.30 | 6.07 | – |
| Cc1noc(C)c1/C=C(\NC(=O)c1ccc(C(=O)NCc2cccc(O)c2)cc1Br)C(=O)O [Example 281] | 6.61 | 4.84 | – |
| O=C(O)/C(=C/c1ccccc1)NC(=O)c1ccc(C(=O)NCc2cccc(O)c2)cc1Cl [Example 282] | 8.35 | 5.72 | – |
| O=C(O)/C(=C/c1cnc2ccccc2c1)NC(=O)c1ccc(C(=O)NCc2cccc(O)c2)cc1Cl [Example 283] | 9.10 | 6.43 | – |
| O=C(O)/C(=C/c1ccc2[nH]nnc2c1)NC(=O)c1ccc(C(=O)NCc2cccc(O)c2)cc1Br [Example 285] | – | 6.63 | pIC50 ([1]; disodium salt): 8.94; pIC50 ([1]; trifluoroacetate salt): 9.47; pIC50 ([2]; listed as 285^c): 6.72 |
| O=C(O)/C(=C/c1ccc2[nH]nnc2c1)NC(=O)c1ccc(C(=O)NCc2cccc3[nH]ccc23)cc1Br [Example 286] | 9.13 | 5.92 | – |
| Nc1ncc(/C=C(\NC(=O)c2ccc(C(=O)NCc3cccc(O)c3)cc2Cl)C(=O)O)s1 [Example 287] | 9.19 | 5.85 | – |
| O=C(O)/C(=C/c1nc[nH]n1)NC(=O)c1ccc(C(=O)NCc2cccc(O)c2)cc1Br [Example 290, (Z)-2-[[2-Bromo-4-[[(3-hydroxybenzyl)amino]carbonyl]benzoyl]amino]-3-(1,2,4triazol-3-yl)propenoic Acid] | 7.87 | 5.89 | – |
| Cc1cc(C(=O)NCc2cccc(O)c2)cc(Cl)c1C(=O)N/C(=C\c1ccc2[nH]nnc2c1)C(=O)O [Example 291, (Z)-3-(1H-Benzotriazol-5-yl)-2-[[2-chloro-4-[[(3-hydroxybenzyl)amino]carbonyl]-6-methylbenzoyl]amino]propenoic Acid] | 9.40 | 6.29 | – |
| Cc1cc(C(=O)NCc2cccc(O)c2)cc(Cl)c1C(=O)N/C(=C\c1cnc2ccccc2c1)C(=O)O [Example 292, (Z)-2-[[2-Chloro-4-[[(3-hydroxybenzyl)amino]carbonyl]-6-methylbenzoyl]amino]-3-(quinolin-3-yl)propenoic Acid] | 9.27 | 6.03 | – |
| Cc1cc(C(=O)NCc2cccc(O)c2)cc(Cl)c1C(=O)N/C(=C\c1ccccc1)C(=O)O [Example 293, (Z)-2-[[2-Chloro-4-[[(3-hydroxybenzyl)amino]carbonyl]-6-methylbenzoyl]amino]-3-phenylpropenoic Acid] | 8.89 | 5.15 | – |
| O=C(O)/C(=C/c1cnc2ccccc2c1)NC(=O)c1ccc(C(=O)CCc2cccc(O)c2)cc1Cl [Example 294, (Z)-2-[[2-Chloro-4-[3-(3-hydroxyphenyl)-1-oxopropan-1-yl]benzoyl]amino]-3-(quinolin-3-yl)propenoic Acid] | 8.62 | 4.89 | – |
